Test results published in ChEMBL document CHEMBL1909571, “Design, synthesis, and biological activity of a novel series of 2,5-disubstituted furans/pyrroles as HIV-1 fusion inhibitors targeting gp41” (Bioorg Med Chem Lett, 2011).

Legend:
[1] = Inhibition of HIV1 3B gp41-mediated fusion of infected human H9 cells to uninfected human MT2 cells by fluorescence assay; assay type: cell-based; details: Human immunodeficiency virus 1, 3B
[2] = test system: Human immunodeficiency virus; experiment: Antiviral activity against HIV 3B infected in MT2 cells assessed as inhibition of viral replication measuring p24 level by ELISA; assay type: functional, organism-based; details: Human immunodeficiency virus 1, 3B
[3] = Cytotoxicity against human MT2 cells by XTT assay; assay type: cell-based
[4] = Inhibition of GP41 six-helix bundle formation in HIV 3B after 30 mins by FN-PAGE analysis; design: species or system Human immunodeficiency virus 1
[5] = Selectivity index, ratio of CC50 for human MT2 cells to EC50 for HIV 3B infected in MT2 cells; assay type: toxicity, cell-based; details: read-out: Ratio CC50/EC50

Row | Structure (SMILES) | EC50 [2] [µM] | EC50 [4] [µM] | EC50 [1] [µM] | CC50 [3] [µM] | selectivity ratio [5]
1 | O=C(O)c1cccc(-c2ccc(/C=C3\NC(=O)N(CCc4ccccc4)C3=O)[nH]2)c1 | > 100 | 3.05 | 35.9 | 75.2 | –
2 | O=C(O)c1cccc(-c2ccc(/C=C3\CC(=O)N(CCc4ccccc4)C3=O)[nH]2)c1 | > 100 | > 100 | > 100 | 127 | –
3 | O=C(O)c1cc(-c2ccc(/C=C3\OC(=S)N(CCc4ccccc4)C3=O)o2)ccc1Cl | 31 | 27.8 | 49.6 | 282 | 9.1
4 | O=C(O)c1cc(-c2ccc(/C=c3\sc4nc(=O)c(-c5ccccc5)nn4c3=O)o2)ccc1Cl | 16.8 | 12.9 | 45.9 | > 320 | > 19.1
5 | O=C(O)c1cc(-c2ccc(/C=C3\SC(=S)N(CCc4ccccc4)C3=O)o2)ccc1Cl | 0.05 | 1.27 | 0.75 | 20.3 | 406

More lines, main results first:

Row | EC50 [2] [µM] | EC50 [4] [µM] | Structure (SMILES) | EC50 [1] [µM] | CC50 [3] [µM] | selectivity ratio [5]
6 | 54.2 | 19 | O=C(O)c1cc(-c2ccc(/C=C3\NC(=O)N(CCc4ccccc4)C3=O)o2)ccc1Cl | > 100 | 78.5 | 1.5
7 | 15.1 | 29.7 | O=C(O)c1cc(-c2ccc(/C=C3\SC(=O)N(CCc4ccccc4)C3=O)o2)ccc1Cl | 26.9 | 68.2 | 4.5
8 | > 100 | 5.5 | O=C(O)c1cc(-c2ccc(/C=C3\CC(=O)N(CCc4ccccc4)C3=O)[nH]2)ccc1Cl | > 100 | 74.1 | –
9 | 6.9 | 15.6 | O=C(O)c1cc(-c2ccc(/C=C3\CC(=O)N(CCc4ccccc4)C3=O)o2)ccc1Cl | 43.6 | 118 | 17.2
